Target: T1, hM2 receptor (CHO-K1 cells) (Homo sapiens, UniProt P08172)
T1 construct: expressed in transfected cells; host or cells: CHO-K1 cells
T1 sequence (P08172 1-466): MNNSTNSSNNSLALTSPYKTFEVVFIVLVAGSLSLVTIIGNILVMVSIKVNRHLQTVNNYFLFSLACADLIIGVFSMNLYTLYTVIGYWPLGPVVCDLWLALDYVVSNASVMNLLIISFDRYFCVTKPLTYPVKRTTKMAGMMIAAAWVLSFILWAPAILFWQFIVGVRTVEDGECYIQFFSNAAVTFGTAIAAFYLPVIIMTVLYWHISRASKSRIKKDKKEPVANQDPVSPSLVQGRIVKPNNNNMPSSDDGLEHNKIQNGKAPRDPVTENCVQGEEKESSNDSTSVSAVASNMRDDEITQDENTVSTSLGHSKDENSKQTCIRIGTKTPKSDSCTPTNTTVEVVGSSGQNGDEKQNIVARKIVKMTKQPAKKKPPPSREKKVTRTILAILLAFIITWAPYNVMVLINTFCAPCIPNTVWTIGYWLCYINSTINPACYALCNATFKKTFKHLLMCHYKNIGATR
Assay: Blockade of agonist-mediated inhibition of cAMP accumulation
Format: cell-based
Settings: CHO-K1 cells expressing hM2; this or a similar assay; read-out: Ki for blockade of oxotremorine-inhibition of forskolin-mediated cAMP accumulation
Procedure: In this assay, the functional potency of a test compound was determined by measuring the ability of the test compound to block oxotremorine-inhibition of forskolin-mediated cAMP accumulation in CHO-K1 cells expressing the hM2 receptor. cAMP assays were performed in a radioimmunoassay format using the Flashplate Adenylyl Cyclase Activation Assay System with ^125I-cAMP (NEN SMP004B, PerkinElmer Life Sciences Inc., Boston, Mass.), according to the manufacturer's instructions.
Cells were rinsed once with dPBS and lifted with Trypsin-EDTA solution (0.05% trypsin/0.53 mM EDTA) as described in the Cell Culture and Membrane Preparation section above. […] The cell pellet was then re-suspended in 10 mL dPBS, and the cells were counted with a Coulter Z1 Dual Particle Counter (Beckman Coulter, Fullerton, Calif.). […]
To measure oxotremorine inhibition of AC activity, 25 μL forskolin (25 μM final concentration diluted in dPBS), 25 μL diluted oxotremorine, and 50 μL cells were added to agonist assay wells. […] Plates were sealed, incubated overnight at room temperature and counted the next morning on a PerkinElmer TopCount liquid scintillation counter (PerkinElmer Inc., Wellesley, Mass.). The amount of cAMP produced (pmol/well) was calculated based on the counts observed for the samples and cAMP standards, as described in the manufacturer's user manual. […]

## CN(CCN1CCC(OC(=O)Nc2ccccc2-c2ccccc2)CC1)C(=O)c1cccc(C(=O)NCCNCc2ccc(O)cc2)c1 [compound of formula I, biphenyl-2-ylcarbamic acid 1-[2-({3-[2-(4-hydroxybenzylamino)ethylcarbamoyl]benzoyl}methylamino)ethyl]piperidin-4-yl ester]
  Ki: < 5 nM

From US7973055B2, “Crystalline forms of a biphenyl compound” (Theravance, Inc., priority 2006, dated 2011)
